This is an account of results in paper PMC8928955, “Assessment of Bioavailability after In Vitro Digestion and First Pass Metabolism of Bioactive Peptides from Collagen Hydrolysates” (Current Issues in Molecular Biology, 2021).

Where two headings read alike, the source gives them in different places. Non-standard residues stand in square brackets, D forms with d. Residues, ends and D or L forms follow the SMILES beside them. Hyp = O=C(O)[C@@H]1C[C@@H](O)CN1

Data set [1] deals with HIEC-6 cells. Put plainly: Peptide transport and apparent permeability across the HIEC-6 intestinal layer of a HIEC-6/HepG2 transwell co-culture. The settings on record: basolateral 2 h vs apical 0 h, mean ± SEM.
Description: (§1) A HIEC-6/HepG2 cell co-culture system was used to determine the bioavailability of targeted BAPs from CHs after digestion (Figure 1). HIEC-6 cells and HepG2 were cultured separately but then later combined in a transwell system using polyester (PET) ThinCerts (Greiner Bio-One, Cat no. 662641, Monroe, NC, USA) and corresponding 24 multiwell cell culture plates (Greiner Bio-One, Cat no. 662160, Monroe, NC, USA). […] HIEC-6 cells were seeded onto ThinCerts at 1 × 10^5 cells/well. The medium was changed every 2 days and cells were grown for a total of 8–9 days. […] HepG2 cells were then added to the basolateral side of the transwell (1 million cells/mL). […] At time 0, the apical medium was replaced with media containing 2 mg/mL reconstituted freeze-dried (FD) CH digesta (either CH-GL and CH-OPT), or only media (blank). The co-culture and treatments were incubated for 2 h at 37 °C, 5% CO2. After 2 h, the inserts containing HIEC-6 cells were removed, and the plates containing HepG2 cells were incubated for another 3 h. Samples were taken from the apical and basolateral sides at times 0, 2 and 5 h, and microcentrifuged at 2000 rpm for 15 min. The supernatant was collected and used for subsequent peptide analysis (see Section 2.7). Three independent experiments assessing bioavailability were completed. Controls included inserts without seeded cells (TEER control) and seeded wells with no CHs treatment (only media; negative control).
(§2) Samples were purified from cellular and protein debris by adapting the use of Amicon® Ultra-0.5 Centrifugal Filter Devices (Millipore, UFC501096, Burlington, Massachusetts, USA). Samples from cell culture were processed as per the manufacturer’s instructions, however, the filtrate (comprising of peptides) was not discarded and instead used for analysis. A CE system (Capel 205M; Lumex Instruments, Fraserview Place, BC) was used for the targeted quantification of 5 peptides (Gly-Pro, Hyp-Gly, Ala-Hyp, Pro-Hyp, Gly-Pro-Hyp). The instrument was set for 20 °C and the separation capillary (Molex, 2000019, Lisle, Illinois, US) was similar to previous CE methods for collagen analysis [36]; 60 cm in total length, 53 cm effective length, and 75 µm inside diameter. Injections were completed using pressure (30 mbar for 10 s) at 0 kV and analysis was completed at 20 kV using 0 mbar for 1199 s at 205 nm. A 0.1 M phosphate buffer (pH 2.4) was used for rinsing and as running buffer. Filtered samples were diluted with running buffer before injection. Before sample injection, the capillary was rinsed with MilliQ water, 0.5 M NaOH and running buffer, each for 5 min. The electropherograms were processed to determine peak area using the software Elforun (Lumex Instruments Canada, Version 4.2.4, Mission, BC, Canada). Quantification of each peptide, based on peak area, was performed using external standards and corresponding calibration curves, where the linearity was assessed by the coefficients of determination, R^2. The mean of three measurements for each treatment was taken.
(§3) The apparent permeability coefficient (Papp) was calculated similarly to Song et al. (2020) [7], using the standard equation:Papp = ΔQ/(Δt × A × C0) where Δt is the incubation time (s), A is the surface area of the insert filter membrane (cm^2), C0 is the initial concentration of peptides in the apical compartment at time 0 h (μM), and ΔQ is the amount of peptide transported within a given period (μmol/s). The incubation timepoint (Δt) used was representative of the intestinal transport phase (2 h timepoint).
Assay in data set [2]: as above
The settings on record: human; for Papp A→B at 2 h: Apparent permeability coefficient (Papp), mean ± SEM.
Description: as §1, §2, §3

A short description of data set [3]: Bioavailability after first pass metabolism in HIEC-6/HepG2 co-culture. The conditions noted are these: human.
Description: as §1, §2
(§4) Bioavailability, after first pass metabolism, was expressed as a percentage of final and initial peptide digesta values, as described in Sadeghi Ekbatan et al. (2018) [8]. Bioavailability (%) = Peptide content after HepG2 incubation (Basolateral 5 h)/Initial amount of peptide (Apical 0 h) × 100
In data set [4] the test system is HepG2 cells. Put plainly: Hepatic first pass effect on transported peptides after HepG2 incubation. The settings on record: basolateral 5 h as percentage of basolateral 2 h, mean ± SEM.
Description: as §1
(§5) Samples were purified from cellular and protein debris by adapting the use of Amicon® Ultra-0.5 Centrifugal Filter Devices (Millipore, UFC501096, Burlington, Massachusetts, USA). Samples from cell culture were processed as per the manufacturer’s instructions, however, the filtrate (comprising of peptides) was not discarded and instead used for analysis. A CE system (Capel 205M; Lumex Instruments, Fraserview Place, BC) was used for the targeted quantification of 5 peptides (Gly-Pro, Hyp-Gly, Ala-Hyp, Pro-Hyp, Gly-Pro-Hyp). […] Injections were completed using pressure (30 mbar for 10 s) at 0 kV and analysis was completed at 20 kV using 0 mbar for 1199 s at 205 nm. A 0.1 M phosphate buffer (pH 2.4) was used for rinsing and as running buffer. Filtered samples were diluted with running buffer before injection. Before sample injection, the capillary was rinsed with MilliQ water, 0.5 M NaOH and running buffer, each for 5 min. The electropherograms were processed to determine peak area using the software Elforun (Lumex Instruments Canada, Version 4.2.4, Mission, BC, Canada). Quantification of each peptide, based on peak area, was performed using external standards and corresponding calibration curves, where the linearity was assessed by the coefficients of determination, R^2. The mean of three measurements for each treatment was taken.
(§6) Hepatic first pass effect (%) was calculated as:Hepatic effect (%) = Peptide content after incubation with HepG2 (Basolateral 5 h)/Content of peptide available for liver metabolism (Basolateral 2 h) × 100
Data set [5] in a line: in vitro. The conditions noted are these: human, Apparent permeability coefficient (Papp).
Description: as §1, §2, §3
A short description of data set [6]: in vitro. The settings on record: human.
Description: as §1, §2, §4
The subject of data set [7] is HIEC-6 cells.
Description: as §1, §2, §3
Data set [8] has as its system HIEC-6/HepG2 co-culture. The settings on record: human.
Description: as §1, §2, §4
The conditions of data set [9]: human, in vivo; cited from earlier work.
Data set [10] relates to Caco-2 cells. The settings on record: cited from earlier work.
The subject of data set [11] is HepG2 cells.
Description: as §1, §5, §6
The conditions of data set [12]: human, in vivo.
Where [13] appears, read: Peptide bioavailability after first pass metabolism.

For orientation: Papp means a coefficient for how fast a substance crosses the barrier. What is called Papp A→B is how fast a substance crosses the layer from the apical side. As a reminder, the bioavailability is the share of a dose that reaches the circulation, judged against a reference dose that is usually intravenous. Read a low bioavailability as poor availability. On to `C[C@H](N)C(=O)N1C[C@H](O)C[C@H]1C(=O)O` [Ala-Hyp] (H-Ala-[Hyp]-OH; N-terminus and C-terminus assumed), for which the “Peptide transport (%) across intestinal epithelium” value in [1] (CH-GL digesta 2 mg/mL apical) came to 9.27 ± 2.49%; in data set [1] (CH-OPT digesta 2 mg/mL apical), 26.4 ± 5.78%. The Papp at 2 h in data set [2] is 0.725 ± 0.195 ×10⁻⁶ cm/s. The results for the Papp A→B at 2 h in [2] (CH-GL treatment) and in data set [2] (CH-OPT treatment) were 0.725 ± 0.195 ×10⁻⁶ cm/s and 1.03 ± 0.226 ×10⁻⁶ cm/s, respectively. In [3] (Average bioavailability after first pass metabolism, average), this molecule returned a bioavailability at 5 h of over 20%. For the same molecule, the “Hepatic effect (%) on peptide content following HepG2 incubation” value (“Hepatic effect (%)” below) came to 304.9 ± 57.2% in [4] (CH-GL) and 198.0 ± 107.6% in [4] (CH-OPT).
Regarding `NCC(=O)N1CCC[C@H]1C(=O)N1C[C@H](O)C[C@H]1C(=O)O` [Gly-Pro-Hyp] (H-Gly-Pro-[Hyp]-OH; N-terminus and C-terminus assumed), the Papp A→B at 2 h in data set [5] was about 9 ×10⁻⁶ cm/s. In addition, the bioavailability at 5 h in data set [6] (Bioavailability (%) after first pass metabolism) came to 12.2 ± 1.12%. In addition, the “Apparent permeability coefficient (Papp)” value in [7] was “no apparent permeability coefficient could be determined”. Also, in data set [8], the “Bioavailability (%) after first pass metabolism” value is on record as “none was observed”. Also, in [9], the “Gly-Pro-Hyp content in the plasma after 2 h” value was ~ 1050 µM and the “Initial Gly-Pro-Hyp content in the plasma” value is on record as ~ 400 µM. Also, the Papp in [10] (Caco-2) is listed as 1.09 ± 0.03 × 10^−6 cm/s. Also, the “Hepatic effect (%)” value in data set [11] worked out at 22.32 ± 5.09%. Besides, in [12], the “Increase of plasma Gly-Pro-Hyp content” value is listed as 162.5%.
As to `NCC(=O)N1CCC[C@H]1C(=O)O` [Gly-Pro] (H-Gly-Pro-OH; N-terminus and C-terminus assumed), the bioavailability at 5 h in data set [6] (setting [13]) was over 32%.
As for `O=C(O)CNC(=O)[C@@H]1C[C@@H](O)CN1` [Hyp-Gly] (H-[Hyp]-Gly-OH; N-terminus and C-terminus assumed), the Papp A→B at 2 h in [5] was found to be 6.74 ± 1.2 ×10⁻⁶ cm/s. This molecule displayed a bioavailability at 5 h in data set [6] (setting [13]) of over 32%. Also, the “Apparent permeability coefficient (Papp)” value in data set [7] (human, 2 h) is 5.593 ± 2.476 × 10^−6 cm/s. The Papp in [10] (Caco-2) is 1e-05 cm/s. Also, in data set [10], the “Transport (%)” value was 22.63 ± 5.19%.
Regarding `O=C(O)[C@@H]1C[C@@H](O)CN1C(=O)[C@@H]1CCCN1` [Pro-Hyp] (H-Pro-[Hyp]-OH; N-terminus and C-terminus assumed), the “Peptide transport (%) across intestinal epithelium” value in data set [1] (CH-GL digesta 2 mg/mL apical) worked out at 19.18 ± 4.81%; in data set [1] (CH-OPT digesta 2 mg/mL apical), 24.15 ± 1.42%. The Papp A→B at 2 h in [2] (CH-GL treatment) amounted to 1.91 ± 0.479 ×10⁻⁶ cm/s. Also, the bioavailability at 5 h in [3] (Bioavailability (%) after first pass metabolism, CH-GL, basolateral 5 h as percentage of apical 0 h, mean ± SEM) worked out at 26.8 ± 3.97%; in [3] (Bioavailability (%) after first pass metabolism, CH-OPT, basolateral 5 h as percentage of apical 0 h, mean ± SEM), 15.4 ± 2.6%. Besides, the “Hepatic effect (%)” value in data set [4] (CH-GL) is listed as 151.4 ± 24.3%; in data set [4] (CH-OPT), 63.63 ± 8.63%. Moreover, the apparent permeability coefficient (Papp) is 0.13 ± 0.03 × 10^−6 cm/s in data set [10] (Caco-2, LC-MS/MS, ref 15 (Sontakke et al. 2016)) and 1.45 ± 0.17 × 10^−6 cm/s in [10] (cell model not printed at the place, ref 40 (Feng et al. 2017)).
